# Read-outs that look alike come from different tables or passages of the source.
# Columns and labels:
# [1] = tested on: female pattern hair loss; conditions: women, facial hair growth during treatment; cited from earlier work
# [2] = tested on: androgenic alopecia; conditions: cited from earlier work
# [3] = tested on: alopecia; test: composition directly applied to the scalp on one side of the head, other side left untreated; type: in vivo, human
# Excerpt: (§1) patient one is diagnosed with alopecia. A composition comprising the calcium channel blocker nifedipine is directly applied to the scalp on one side of the head while the other side is left untreated. […] patient one is diagnosed with alopecia. A composition comprising the ACE inhibitor enalapril is directly applied to the scalp on one side of the head while the other side is left untreated. […] patient one is diagnosed with alopecia. A composition comprising the angiotensin receptor blocker losartan is directly applied to the scalp on one side of the head while the other side is left untreated. […] patient two is diagnosed with alopecia. A composition comprising the calcium channel blocker nifedipine is directly applied to the scalp on one side of the head while the other side is left untreated. […] patient two is diagnosed with alopecia. A composition comprising the ACE inhibitor enalapril is directly applied to the scalp on one side of the head while the other side is left untreated. […] patient two is diagnosed with alopecia. A composition comprising the angiotensin receptor blocker losartan is directly applied to the scalp on one side of the head while the other side is left untreated.
# [4] = tested on: alopecia; test: composition directly injected into the scalp on one side of the head, other side left untreated; type: in vivo, human
# Excerpt: as §1, with “injected into” for “applied to”, “the” for “the other”
SMILES,time for facial hair growth side effect to resolve [1],hair count higher than baseline as compared to placebo ([2]; after 4 years),hair count higher than baseline as compared to placebo ([2]; after one year of treatment),"symptoms of alopecia, treated side versus untreated side ([3]; patient one)","symptoms of alopecia, treated side versus untreated side ([3]; patient two)","symptoms of alopecia, treated side versus untreated side ([4]; patient one)","symptoms of alopecia, treated side versus untreated side ([4]; patient two)"
Nc1cc(N2CCCCC2)nc(N)[n+]1[O-] [Minoxidil],at least 4 months,–,–,–,–,–,–
CC(C)(C)NC(=O)[C@H]1CC[C@H]2[C@@H]3CC[C@H]4NC(=O)C=C[C@]4(C)[C@H]3CC[C@]12C [Finasteride],–,24.3%,9.42%,–,–,–,–
CCOC(=O)[C@H](CCc1ccccc1)N[C@@H](C)C(=O)N1CCC[C@H]1C(=O)O [enalapril],–,–,–,reduced symptoms of alopecia,reduced symptoms of alopecia,reduced symptoms of alopecia,reduced symptoms of alopecia
CCCCc1nc(Cl)c(CO)n1Cc1ccc(-c2ccccc2-c2nn[nH]n2)cc1 [losartan],–,–,–,reduced symptoms of alopecia,reduced symptoms of alopecia,reduced symptoms of alopecia,reduced symptoms of alopecia

# Source: patent US20210346378A1, “METHOD TO PREVENT AND TREAT ALOPECIA BY CALCIUM CHANNEL BLOCKERS, ANGIOTENSIN CONVERTING ENZYME INHIBITORS, AND ANGIOTENSIN RECEPTOR BLOCKERS” (priority 2019, published 2021)
